US20230298697A1, “DETERMINING VIABILITY AND TREATMENT OF DISEASE AGENTS” (priority 2022, published 2023)
Converted amounts (≈) assume the structure as drawn. “And” between values parts separate entries of the source, which are not always exact repeats. Identical values can stand only once.

Key:
[1] = system: Mycobacterium tuberculosis H37Rv; assay: Minimum Inhibitory Concentration 50 (MIC50) determination; format: cell-based; conditions: OD600 growth inhibition, 72 hours, 7H9-rich media
[2] = system: Mycobacterium tuberculosis H37Rv; assay: Time-kill assay (CFU counting); format: cell-based; conditions: for CFUs /ml (10^6) h0: h0 (start of treatment); for Relative CFUs (log10) h72: h72 relative to h0
[3] = system: Mycobacterium tuberculosis H37Rv; conditions: compared with other frontline drugs; stated as known; cited from earlier work

SMILES: NNC(=O)c1ccncc1 [INH, Isoniazid]
- MIC50 [1]: 0.2 µg/mL (≈ 1.46 µM)
- CFUs /ml (10^6) h24 ([2]; 0.018 µg/ml): 182 CFUs /ml (10^6) and 160 CFUs /ml (10^6) and 171 CFUs /ml (10^6)
- CFUs /ml (10^6) h72 ([2]; 0.018 µg/ml): 184 CFUs /ml (10^6) and 194 CFUs /ml (10^6) and 203 CFUs /ml (10^6)
- CFUs /ml (10^6) h0 ([2]; 0.18 µg/ml): 93 CFUs /ml (10^6) and 77 CFUs /ml (10^6) and 70 CFUs /ml (10^6)
- CFUs /ml (10^6) h24 ([2]; 0.18 µg/ml): 60 CFUs /ml (10^6) and 90 CFUs /ml (10^6)
- CFUs /ml (10^6) h72 ([2]; 0.18 µg/ml): 78 CFUs /ml (10^6) and 97 CFUs /ml (10^6) and 70 CFUs /ml (10^6)
- Relative CFUs (log10) h72 ([2]; 0.18 µg/ml): -0.076 log10 and 0.1 log10 and 0 log10
- CFUs /ml (10^6) h0 ([2]; 0.36 µg/ml): 159 CFUs /ml (10^6) and 180 CFUs /ml (10^6) and 187 CFUs /ml (10^6)
- CFUs /ml (10^6) h72 ([2]; 0.36 µg/ml): 0.1 CFUs /ml (10^6)
- Relative CFUs (log10) h72 ([2]; 0.36 µg/ml): -3.201 log10 and -3.255 log10 and -3.272 log10
- CFUs /ml (10^6) h0 ([2]; 1.8 µg/ml): 77 CFUs /ml (10^6) and 68 CFUs /ml (10^6) and 87 CFUs /ml (10^6)
- CFUs /ml (10^6) h72 ([2]; 1.8 µg/ml): 0.1 CFUs /ml (10^6)
- Relative CFUs (log10) h72 ([2]; 1.8 µg/ml): -2.886 log10 and -2.833 log10 and -2.94 log10

SMILES: COc1c(N2C[C@@H]3CCCN[C@@H]3C2)c(F)cc2c(=O)c(C(=O)O)cn(C3CC3)c12 [MXF, Moxifloxacin hydrocholoride]
- MIC50 [1]: 0.07 µg/mL (≈ 0.174 µM)
- CFUs /ml (10^6) h0 ([2]; 0.075 µg/ml): 69 CFUs /ml (10^6) and 53 CFUs /ml (10^6) and 72 CFUs /ml (10^6)
- CFUs /ml (10^6) h24 ([2]; 0.075 µg/ml): 90 CFUs /ml (10^6) and 88 CFUs /ml (10^6) and 80 CFUs /ml (10^6)
- CFUs /ml (10^6) h72 ([2]; 0.075 µg/ml): 159 CFUs /ml (10^6) and 165 CFUs /ml (10^6) and 147 CFUs /ml (10^6)
- Relative CFUs (log10) h72 ([2]; 0.075 µg/ml): 0.363 log10 and 0.493 log10 and 0.31 log10
- CFUs /ml (10^6) h0 ([2]; 0.3 µg/ml): 43 CFUs /ml (10^6) and 50 CFUs /ml (10^6)
- CFUs /ml (10^6) h72 ([2]; 0.3 µg/ml): 0.1 CFUs /ml (10^6)
- Relative CFUs (log10) h72 ([2]; 0.3 µg/ml): -2.633 log10 and -2.699 log10

SMILES: COc1nc2ccc(Br)cc2cc1[C@@H](c1ccccc1)[C@@](O)(CCN(C)C)c1cccc2ccccc12 [BDQ, Bedaquiline]
- speed of killing of Mycobacterium tuberculosis [3]: kills Mycobacterium tuberculosis relatively slowly
- MIC50 [1]: 1.61 µg/mL (≈ 2.9 µM)
- CFUs /ml (10^6) h0 ([2]; 1.15 µg/ml): 61 CFUs /ml (10^6) and 69 CFUs /ml (10^6) and 72 CFUs /ml (10^6)
- CFUs /ml (10^6) h24 ([2]; 1.15 µg/ml): 91 CFUs /ml (10^6) and 96 CFUs /ml (10^6) and 101 CFUs /ml (10^6)
- CFUs /ml (10^6) h72 ([2]; 1.15 µg/ml): 352 CFUs /ml (10^6) and 362 CFUs /ml (10^6) and 346 CFUs /ml (10^6)
- Relative CFUs (log10) h72 ([2]; 1.15 µg/ml): 0.761 log10 and 0.72 log10 and 0.682 log10
- CFUs /ml (10^6) h0 ([2]; 5.75 µg/ml): 55 CFUs /ml (10^6) and 53 CFUs /ml (10^6) and 61 CFUs /ml (10^6)
- CFUs /ml (10^6) h24 ([2]; 5.75 µg/ml): 97 CFUs /ml (10^6) and 81 CFUs /ml (10^6) and 100 CFUs /ml (10^6)
- CFUs /ml (10^6) h72 ([2]; 5.75 µg/ml): 115 CFUs /ml (10^6) and 132 CFUs /ml (10^6) and 96 CFUs /ml (10^6)
- Relative CFUs (log10) h72 ([2]; 5.75 µg/ml): 0.32 log10 and 0.396 log10 and 0.197 log10

SMILES: O=[N+]([O-])c1cn2c(n1)OC[C@@H](OCc1ccc(OC(F)(F)F)cc1)C2 [PA824, Pretomanid]
- MIC50 [1]: 0.15 µg/mL (≈ 0.418 µM)

SMILES: CC(C)/N=c1\cc2n(-c3ccc(Cl)cc3)c3ccccc3nc-2cc1Nc1ccc(Cl)cc1 [CFZ, Clofazimine]
- CFUs /ml (10^6) h0 ([2]; 0.0728 µg/ml): 239 CFUs /ml (10^6) and 141 CFUs /ml (10^6) and 148 CFUs /ml (10^6)
- CFUs /ml (10^6) h24 ([2]; 0.0728 µg/ml): 116 CFUs /ml (10^6) and 112 CFUs /ml (10^6) and 124 CFUs /ml (10^6)
- CFUs /ml (10^6) h72 ([2]; 0.0728 µg/ml): 176 CFUs /ml (10^6) and 192 CFUs /ml (10^6) and 207 CFUs /ml (10^6)
- Relative CFUs (log10) h72 ([2]; 0.0728 µg/ml): -0.133 log10 and 0.134 log10 and 0.146 log10
- CFUs /ml (10^6) h0 ([2]; 0.728 µg/ml): 158 CFUs /ml (10^6) and 182 CFUs /ml (10^6) and 101 CFUs /ml (10^6)
- CFUs /ml (10^6) h24 ([2]; 0.728 µg/ml): 87 CFUs /ml (10^6) and 69 CFUs /ml (10^6) and 67 CFUs /ml (10^6)
- CFUs /ml (10^6) h72 ([2]; 0.728 µg/ml): 41 CFUs /ml (10^6) and 26 CFUs /ml (10^6) and 52 CFUs /ml (10^6)

SMILES: CO[C@H]1/C=C/O[C@@]2(C)Oc3c(C)c(O)c4c(O)c(c(/C=N/N5CCN(C)CC5)c(O)c4c3C2=O)NC(=O)/C(C)=C\C=C\[C@H](C)[C@H](O)[C@@H](C)[C@@H](O)[C@@H](C)[C@H](OC(C)=O)[C@@H]1C [RIF, Rifampicin]
- MIC50 [1]: 0.02 µg/mL (≈ 0.0243 µM)

SMILES: CC(=O)NC[C@H]1CN(c2ccc(N3CCOCC3)c(F)c2)C(=O)O1 [LZD, Linezolid]
- MIC50 [1]: 1.13 µg/mL (≈ 3.35 µM)
- CFUs /ml (10^6) h0 ([2]; 0.0844 µg/ml): 81 CFUs /ml (10^6) and 100 CFUs /ml (10^6) and 98 CFUs /ml (10^6)
- CFUs /ml (10^6) h24 ([2]; 0.0844 µg/ml): 135 CFUs /ml (10^6) and 147 CFUs /ml (10^6) and 127 CFUs /ml (10^6)
- CFUs /ml (10^6) h72 ([2]; 0.0844 µg/ml): 249 CFUs /ml (10^6) and 245 CFUs /ml (10^6) and 239 CFUs /ml (10^6)
- Relative CFUs (log10) h72 ([2]; 0.0844 µg/ml): 0.488 log10 and 0.389 log10 and 0.387 log10
- CFUs /ml (10^6) h0 ([2]; 0.844 µg/ml): 61 CFUs /ml (10^6) and 68 CFUs /ml (10^6) and 60 CFUs /ml (10^6)
- CFUs /ml (10^6) h24 ([2]; 0.844 µg/ml): 63 CFUs /ml (10^6) and 74 CFUs /ml (10^6) and 92 CFUs /ml (10^6)
- CFUs /ml (10^6) h72 ([2]; 0.844 µg/ml): 71 CFUs /ml (10^6) and 86 CFUs /ml (10^6) and 72 CFUs /ml (10^6)
- Relative CFUs (log10) h72 ([2]; 0.844 µg/ml): 0.066 log10 and 0.102 log10 and 0.079 log10
